According to patent publication US8338443B2, “Chemical compounds” (priority 2006, dated 2012):

Columns and labels:
Spodoptera littoralis = Spodoptera littoralis (Egyptian cotton leafworm) cotton leaf disc spray test; assay type: in vivo; conditions: foliar, 72 h, 200 ppm spray on cotton leaf discs, L1 larvae, mortality, repellent effect, feeding behaviour, growth regulation 3 DAT
From the text: Spodoptera littoralis (Egyptian Cotton Leafworm)
Cotton leaf discs were placed on agar in a 24-well microtiter plate and sprayed with test solutions at an application rate of 200 ppm. After drying, the leaf discs were infested with 5 L1 larvae. The samples were checked for mortality, repellent effect, feeding behaviour, and growth regulation 3 days after treatment (DAT). The following compounds gave at least 80% control of Spodoptera littoralis: I-3, II-3, II-7, V-3, XXVII-3, XXVIII-3, XXIX-3, XXXI-3.

Aedes aegypti = Aedes aegypti (yellow fever mosquito) larvae test; assay type: in vivo; conditions: 48 h, L2 larvae in 96-well plates, 2 days, mortality and growth inhibition
From the text: Aedes aegypti (Yellow Fever Mosquito):
10-15 Aedes larvae (L2) together with a nutrition mixture are placed in 96-well microtiter plates. Test solutions at an application rate of 2 ppm are pipetted into the wells. 2 days later, insects were checked for mortality and growth inhibition. The following compounds gave at least 80% control of Aedes aegypti: I-3, II-3, II-7, V-3, XXVII-3, XXVIII-3, XXIX-3, XXXI-3.

Molecule `O=C(Nc1ccc2cccnc2c1C1CCN(C/C=C/c2ccc(Cl)cc2)CC1)c1ccnc(Cl)c1` [Compound I-3] has a pest or weed control at 200 ppm (Spodoptera littoralis) of at least 80% and a pest or weed control at 2 ppm (Aedes aegypti) of at least 80%.

With `O=C(Nc1ccc2ncsc2c1C1CCN(C/C=C/c2ccc(Cl)cc2)CC1)c1ccnc(Cl)c1` [Compound V-3] the pest or weed control at 200 ppm (Spodoptera littoralis) was at least 80% and the pest or weed control at 2 ppm (Aedes aegypti) was at least 80%.

For `O=C(Nc1ccc2scnc2c1C1CCN(C/C=C/c2ccc(Cl)cc2)CC1)c1ccnc(Cl)c1` [II-3, 2-Chloro-N-(4-{1-[(E)-3-(4-chloro-phenyl)-allyl]-piperidin-4-yl}-benzothiazol-5-yl)-isonicotinamide], the pest or weed control at 200 ppm (Spodoptera littoralis) was at least 80% and the pest or weed control at 2 ppm (Aedes aegypti) was at least 80%.

Work on `O=C(Nc1ccc2scnc2c1C1CCN(C/C=C/c2ccc(OC(F)(F)F)cc2)CC1)c1ccnc(Cl)c1` [II-7] yielded a pest or weed control at 200 ppm (Spodoptera littoralis) of at least 80% and a pest or weed control at 2 ppm (Aedes aegypti) of at least 80%.

Work on `O=C(Nc1ccc2cccnc2c1C1=CCN(C/C=C/c2ccc(Cl)cc2)CC1)c1ccnc(Cl)c1` [XXIX-3] yielded a pest or weed control at 200 ppm (Spodoptera littoralis) of at least 80% and a pest or weed control at 2 ppm (Aedes aegypti) of at least 80%.

For `O=C(Nc1ccc2cn[nH]c2c1C1CCN(C/C=C/c2ccc(Cl)cc2)CC1)c1ccnc(Cl)c1` [XXVII-3], the pest or weed control at 200 ppm (Spodoptera littoralis) was at least 80% and the pest or weed control at 2 ppm (Aedes aegypti) was at least 80%.

Molecule `O=C(Nc1ccc2nccnc2c1C1CCN(C/C=C/c2ccc(Cl)cc2)CC1)c1ccnc(Cl)c1` [XXVIII-3] has a pest or weed control at 200 ppm (Spodoptera littoralis) of at least 80% and a pest or weed control at 2 ppm (Aedes aegypti) of at least 80%.

`Cc1nc2c(C3=CCN(C/C=C/c4ccc(Cl)cc4)CC3)c(NC(=O)c3ccnc(Cl)c3)ccc2s1` [XXXI-3] showed a pest or weed control at 200 ppm (Spodoptera littoralis) of at least 80% and a pest or weed control at 2 ppm (Aedes aegypti) of at least 80%.
